Source: PMC12489660, “Multitargeted Caffeic Acid Derivatives Inhibit Cardiac RyR2- and NaV1.5- Channels but Stimulate SERCA2a Pump Activity” (ACS Omega, 2025)
pEC50: −log10 of the molar value. Values joined by “and” are separate entries in the source; they are usually repeats but may differ in a detail not shown here. Identical values can stand only once.

What was measured:
[1] = PermeaPad membrane permeability; format: in vitro ADME; settings: not told, room temperature, class low/medium in parentheses, read-out: P e (permeability rate)
Text: We determined permeability rates (P e ), which are a measure of how fast a compound can cross a membrane, using cell-free transport models (PermeaPad, innoME GmbH) The CA derivatives have medium to low permeability rates in the range 1.0–24.0 nm/s (Table ). Similar to S36, despite poor permeability, compounds 2–4, 8, and 9 acted on live RyR2-HEK-293 R-CEPIA1er cells inhibiting RyR2. […] Since PermeaPad is an artificial model that primarily reflects passive diffusion, it is likely that additional mechanisms contribute to the crossing of cell membranes by these compounds.
Membrane permeability was assessed using PermeaPad Plate according to the manufacturing procedure (innoME GmbH, Espelkamp, Germany). Briefly, 200 μL (V A) water was added into acceptor plate. 200 μL (V D) of 100–500 μM test compound in water was added directly to the well membranes of the donor plate. The donor plate contains a biomimetic membrane for simulating passive mass transfer through different barriers in the body. Then the donor plate was placed into the acceptor plate wells and incubated at room temperature for 24 h in dark. To determine peak absorbance of test compounds, absorbance spectra of acceptor solutions and initial solutions for each test compound were read out. The Permeability Rate (P e) was calculated using the formula:
P e = C × −ln (1 – ODA/ODB) cm/s, where OD A is the absorbance of acceptor solution, OD B is the absorbance of the standard solution; if the compound is able to permeabilize the membrane and fully reach equilibrium, 250 μM will be the final concentration of solution in the donor and acceptor wells. The coefficient C was calculated using the formula: C=VD×VA/(VD+VA)×Area×time where V A–acceptor volume (cm^3), V D–donor volume (cm^3), membrane area 0.24 cm^2, time is 86,400 s.

[2] = biological target: T1, SERCA2b (Homo sapiens, UniProt P16615); assay: NADH fluorescence-coupled ATPase assay on microsomal membranes isolated from HEK-293T cells; format: biochemical; settings: 10 µM, HEK-293T microsomal membranes
T1 construct: endogenous in cells; host or cells: HEK-293T cells, microsomal membranes
Text: HL-1 cells are known to express cardiac SERCA2a. […] HL-1 cells are in fact derived from mouse atrial cardiomyocytes that coexpress SERCA2a and SERCA2b. , We assumed that such behavior of compounds 1 and 5 is associated with their selective action on additional SERCA2 isoform present in these cells.

[3] = biological target: human NaV1.5 (Homo sapiens, UniProt Q14524); assay: FLIPR membrane potential assay on CHO NaV1.5 Duo cells (veratridine-induced); format: cell-based; settings: for NaV1.5 activity in CHO cells: 10 μM, percentage from the control sample (100%), mean ± SEM; for effect on NaV1.5 activity (in words): concentration range 0.1 to 100 μM
[4] = biological target: T2, wild type mouse RyR2 (Mus musculus, UniProt E9Q401); assay: Time-lapse [Ca2+]ER assay in HEK-293 RyR2 R-CEPIA1er cells (RyR2 activity assay); format: cell-based; settings: 25 μM; for effect on RyR2 activity / [Ca2+]ER (in words): vs control 0.1 v/v% DMSO; for RyR2 activity: percentage from the control sample (100%), mean ± SEM;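 as to all read-outs here: ER Ca2+ read as R-CEPIA1er fluorescence ratio F/F0 (F0 mean of initial 90 s, F mean of final 100 s), compared with vehicle-treated control wells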
T2 construct: expressed in transfected cells; host or cells: HEK-293 cells stably expressing WT RyR2 and R-CEPIA1er (gift of Dr. Takashi Murayama), induced with doxycycline

[5] = biological target: SERCA2 (Mus musculus, UniProt O55143); assay: Caffeine induced calcium release assay on live HL-1 cardiomyocytes; format: cell-based; settings: for activation of SERCA2 in HL-1: 10 μM, percentage from the control sample (100%), mean ± SEM; for EC50: 2 h preincubation, 10 mM caffeine, read-out: activation of SERCA2 in HL-1, EC50 (converted);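 as to all read-outs here: Read-out: caffeine-evoked peak minus basal fluorescence (ΔF Caff) of cytoplasmic FLIPR Calcium 6 dye, recorded for 1 min, compared with Tyrode's solution plus 0.1 v/v% DMSO as control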
[6] = biological target: T3, SERCA2a (Mus musculus, UniProt O55143); assay: NADH-coupled ATPase assay on microsomal membrane vesicles from mouse heart ventricles (mouse SER); format: biochemical; settings: for effect on SERCA2a ATPase activity (in words) / ATPase activity of SERCA2a in mouse SER: 10 μM; for effect on SERCA2a ATPase activity (in words): mouse SER; for ATPase activity of SERCA2a in mouse SER: percentage from the control sample (100%), mean ± SEM; for pEC50: kinetic rate of NADH–NAD+ conversion, Figure S10: 200 µM free Ca2+
T3 construct: from tissue; host or cells: adult mouse heart ventricles, microsomal membrane vesicles
Method: To this end, we tracked the rate of nicotinamide adenine dinucleotide (NADH) oxidation linked to ATP hydrolysis by observing changes in NADH fluorescence over time. This was done after addition of ATP to solutions containing microsomal membranes enriched with SER vesicles isolated from adult mouse heart ventricles (mouse SER). The NADH fluorescence decrease was recorded on a FlexStation 3 Multimode Microplate Reader. […] We detected the highest increase in ATPase activity (up to 118%), when the vesicles were treated with borate complex 11–13 (Table ). We tested compounds 11–13 in the NADH assay buffer to see whether these compounds could contribute to the rate of NADH fluorescence reduction (Figures S7–S9). No significant deviations were found in the rate of NADH consumption compared to the control sample (0.1 v/v% DMSO).
Isolation of Microsomal Membrane Vesicles from mouse hearts was done according to procedure described earlier. All animal procedures were performed in accordance with national and institutional regulations.
Mouse ventricular microsomes (4–5 μg of total protein) were diluted in 100 μL of the assay buffer used for measurement of SERCA activity (described below) and incubated at room temperature for 10 min prior to the experiments. The measurements of SERCA2 activity were made at 25 °C by using a NADH -coupled ATPase assay as described in Radnai et al. with slight modifications. Briefly, the assay buffer contained 60 mM MOPS, 120 mM KCl, 6 mM MgCl2, 1 mM EGTA, 5 mM NaN3, 0.5 mM phosphoenolpyruvate and 0.67 mM CaCl2, pH 7.0. Before the reaction was started by the injection of 10 μL ATP (resulting in 2 mM final concentration in the well), 5 units/mL of both lactate dehydrogenase and pyruvate kinase, 0.5 mM NADH, and 1 μM Ca^2+ ionophore A-23187 (Sigma, C-7522) were added to the diluted sample with or without the tested compound (volume −150 μL). […] The NADH fluorescence decrease was recorded each 2 s for 5 min course on a FlexStation 3 Multi-Mode Microplate Reader in 96-well glass bottom plates (MatTek Corporation; Cat. No. PBK96G-1.5-5-F). Fluorescence was evoked by 380 nm excitation wavelength and collected in a bottom-read mode at 425 nm, cutoff–470 nm, 4 flashes per read. ATP was injected at 60 s, speed–125 μL/s, pipet height–140 μL. The data were analyzed with computer software GraphPad Prism version 8.3.1 (GraphPad Software, Inc.). The difference in signal decrease with and without microsomes was taken as an indicator for the additional ATPase activity performed by SERCA2. The obtained values for maximal SERCA2 activity were normalized for total protein concentration. Maximal SERCA2 activity values are reported as percentages of control (0.1% DMSO) values. Microsomal samples that were kept on ice until usage and set to 100%.

[7] = tested on: HL-1 cells; assay: CytoTox-Glo Cytotoxicity Assay; format: cell-based; settings: 24 h, concentrations up to 1 μM
Method: Cell viability was assessed using CytoTox-Glo Cytotoxicity Assay according to the manufacturing procedure (Promega GmbH). Briefly, HL-1 cells were cultivated for 24 h in black-walled, clear-bottom 96-well microplates (Corning) covered with fibronectin/gelatin in DMEM, containing different concentrations of the tested compound (10,000 cells/well). Luminescence of a luminogenic peptide substrate was measured before and after addition of the lysis reagent (digitonin). The viable cell contribution was determined by a subtractive method. 0.1% DMSO treated cell were taken as a control.

[8] = design: method as in earlier work; settings: class low in parentheses; ref (number not given); cited from earlier work

T3 sequence (O55143 1-998 isoform O55143-2): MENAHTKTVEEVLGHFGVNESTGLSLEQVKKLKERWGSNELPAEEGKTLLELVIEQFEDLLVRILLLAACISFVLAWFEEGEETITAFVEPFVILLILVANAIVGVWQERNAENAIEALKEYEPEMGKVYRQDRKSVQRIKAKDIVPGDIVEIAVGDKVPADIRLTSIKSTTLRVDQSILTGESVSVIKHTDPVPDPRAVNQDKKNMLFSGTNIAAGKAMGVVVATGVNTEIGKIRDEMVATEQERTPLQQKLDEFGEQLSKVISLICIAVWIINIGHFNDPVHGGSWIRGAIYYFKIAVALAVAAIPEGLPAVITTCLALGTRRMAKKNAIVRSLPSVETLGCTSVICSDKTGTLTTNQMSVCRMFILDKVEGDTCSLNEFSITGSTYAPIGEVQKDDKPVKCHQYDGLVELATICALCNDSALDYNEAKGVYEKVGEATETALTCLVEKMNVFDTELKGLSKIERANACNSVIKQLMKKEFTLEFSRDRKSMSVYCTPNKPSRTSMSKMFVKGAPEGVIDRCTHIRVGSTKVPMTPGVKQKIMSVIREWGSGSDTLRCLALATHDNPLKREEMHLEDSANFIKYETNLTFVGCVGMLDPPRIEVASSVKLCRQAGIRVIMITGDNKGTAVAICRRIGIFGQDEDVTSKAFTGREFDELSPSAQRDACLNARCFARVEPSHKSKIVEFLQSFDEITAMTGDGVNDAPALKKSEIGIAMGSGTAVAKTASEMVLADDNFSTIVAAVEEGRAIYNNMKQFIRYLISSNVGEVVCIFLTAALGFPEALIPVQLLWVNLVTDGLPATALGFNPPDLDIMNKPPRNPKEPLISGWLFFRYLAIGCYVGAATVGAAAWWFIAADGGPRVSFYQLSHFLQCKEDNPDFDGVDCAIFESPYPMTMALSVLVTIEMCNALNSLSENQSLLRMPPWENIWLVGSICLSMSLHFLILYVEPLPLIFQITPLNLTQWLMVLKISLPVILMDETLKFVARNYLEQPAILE
Sequence of SERCA2 (O55143 1-994 limits assumed): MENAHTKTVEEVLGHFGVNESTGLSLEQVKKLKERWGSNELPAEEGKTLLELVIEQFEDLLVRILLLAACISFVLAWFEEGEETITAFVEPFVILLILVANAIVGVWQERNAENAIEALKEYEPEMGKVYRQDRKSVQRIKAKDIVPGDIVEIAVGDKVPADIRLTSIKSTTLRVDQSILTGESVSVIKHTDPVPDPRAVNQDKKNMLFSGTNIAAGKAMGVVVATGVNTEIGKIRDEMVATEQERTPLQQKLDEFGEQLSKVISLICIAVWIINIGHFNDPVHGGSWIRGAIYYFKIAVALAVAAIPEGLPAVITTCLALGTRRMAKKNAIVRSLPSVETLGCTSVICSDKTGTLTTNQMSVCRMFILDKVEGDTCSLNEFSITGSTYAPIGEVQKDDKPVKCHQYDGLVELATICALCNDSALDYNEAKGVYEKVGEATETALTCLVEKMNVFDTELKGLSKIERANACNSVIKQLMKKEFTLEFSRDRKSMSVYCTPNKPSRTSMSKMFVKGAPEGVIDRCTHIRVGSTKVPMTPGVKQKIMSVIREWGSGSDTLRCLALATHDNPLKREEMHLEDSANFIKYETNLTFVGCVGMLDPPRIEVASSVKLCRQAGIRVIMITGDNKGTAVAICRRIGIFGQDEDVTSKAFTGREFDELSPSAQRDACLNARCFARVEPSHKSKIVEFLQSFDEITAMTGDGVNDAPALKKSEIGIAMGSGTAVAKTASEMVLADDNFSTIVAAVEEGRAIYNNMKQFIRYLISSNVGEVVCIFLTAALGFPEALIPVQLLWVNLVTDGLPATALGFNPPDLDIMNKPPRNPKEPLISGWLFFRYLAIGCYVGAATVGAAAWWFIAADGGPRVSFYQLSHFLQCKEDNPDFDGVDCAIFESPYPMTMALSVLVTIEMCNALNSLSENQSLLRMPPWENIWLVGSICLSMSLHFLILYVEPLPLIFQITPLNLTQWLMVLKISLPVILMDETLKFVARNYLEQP
Sequence of human NaV1.5 (Q14524 1-460 limits assumed): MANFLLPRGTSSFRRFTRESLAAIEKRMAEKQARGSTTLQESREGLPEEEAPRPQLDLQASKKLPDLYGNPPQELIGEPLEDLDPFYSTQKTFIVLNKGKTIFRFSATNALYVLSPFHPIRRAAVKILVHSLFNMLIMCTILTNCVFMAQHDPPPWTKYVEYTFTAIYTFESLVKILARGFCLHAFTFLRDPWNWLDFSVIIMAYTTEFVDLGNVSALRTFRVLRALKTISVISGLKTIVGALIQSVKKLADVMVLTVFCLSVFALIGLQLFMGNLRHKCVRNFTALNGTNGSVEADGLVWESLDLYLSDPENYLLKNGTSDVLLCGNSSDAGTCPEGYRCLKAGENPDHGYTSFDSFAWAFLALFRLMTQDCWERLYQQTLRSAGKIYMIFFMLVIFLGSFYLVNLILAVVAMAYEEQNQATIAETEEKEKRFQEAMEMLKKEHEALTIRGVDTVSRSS
Sequence of human NaV1.5 (Q14524 661-1004 limits assumed): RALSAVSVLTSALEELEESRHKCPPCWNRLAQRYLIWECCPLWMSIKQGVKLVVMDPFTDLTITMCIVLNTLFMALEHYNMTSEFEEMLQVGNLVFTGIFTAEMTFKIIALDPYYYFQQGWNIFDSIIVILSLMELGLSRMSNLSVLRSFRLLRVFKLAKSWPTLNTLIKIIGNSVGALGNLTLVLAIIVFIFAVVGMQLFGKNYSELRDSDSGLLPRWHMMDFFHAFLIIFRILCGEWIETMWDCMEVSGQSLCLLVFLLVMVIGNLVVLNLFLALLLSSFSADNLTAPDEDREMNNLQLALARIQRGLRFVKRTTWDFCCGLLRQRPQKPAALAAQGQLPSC
Sequence of human NaV1.5 (Q14524 1142-2016 limits assumed): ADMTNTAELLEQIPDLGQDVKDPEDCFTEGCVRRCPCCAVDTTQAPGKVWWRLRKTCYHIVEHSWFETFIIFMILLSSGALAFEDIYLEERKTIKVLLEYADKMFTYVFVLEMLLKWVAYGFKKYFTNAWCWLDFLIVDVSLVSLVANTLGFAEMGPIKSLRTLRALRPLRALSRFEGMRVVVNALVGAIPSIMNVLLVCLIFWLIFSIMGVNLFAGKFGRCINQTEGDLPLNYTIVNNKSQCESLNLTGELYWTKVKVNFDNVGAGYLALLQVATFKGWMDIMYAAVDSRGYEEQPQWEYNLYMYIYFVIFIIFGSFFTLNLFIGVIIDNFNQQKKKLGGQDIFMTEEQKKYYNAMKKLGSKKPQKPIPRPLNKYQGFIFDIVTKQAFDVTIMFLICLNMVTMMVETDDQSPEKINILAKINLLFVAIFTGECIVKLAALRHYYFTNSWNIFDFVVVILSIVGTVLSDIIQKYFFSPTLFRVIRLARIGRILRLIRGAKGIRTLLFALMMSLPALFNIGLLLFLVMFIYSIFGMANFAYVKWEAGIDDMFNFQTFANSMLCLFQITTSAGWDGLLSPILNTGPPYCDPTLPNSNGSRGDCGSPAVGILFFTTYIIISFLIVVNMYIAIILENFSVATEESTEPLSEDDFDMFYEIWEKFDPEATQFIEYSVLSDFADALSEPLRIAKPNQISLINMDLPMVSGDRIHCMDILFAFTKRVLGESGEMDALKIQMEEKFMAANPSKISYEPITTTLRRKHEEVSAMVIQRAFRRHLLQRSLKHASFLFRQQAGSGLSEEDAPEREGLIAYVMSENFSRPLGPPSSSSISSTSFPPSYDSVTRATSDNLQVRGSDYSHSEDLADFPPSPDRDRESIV
T1 sequence (P16615 whole entry): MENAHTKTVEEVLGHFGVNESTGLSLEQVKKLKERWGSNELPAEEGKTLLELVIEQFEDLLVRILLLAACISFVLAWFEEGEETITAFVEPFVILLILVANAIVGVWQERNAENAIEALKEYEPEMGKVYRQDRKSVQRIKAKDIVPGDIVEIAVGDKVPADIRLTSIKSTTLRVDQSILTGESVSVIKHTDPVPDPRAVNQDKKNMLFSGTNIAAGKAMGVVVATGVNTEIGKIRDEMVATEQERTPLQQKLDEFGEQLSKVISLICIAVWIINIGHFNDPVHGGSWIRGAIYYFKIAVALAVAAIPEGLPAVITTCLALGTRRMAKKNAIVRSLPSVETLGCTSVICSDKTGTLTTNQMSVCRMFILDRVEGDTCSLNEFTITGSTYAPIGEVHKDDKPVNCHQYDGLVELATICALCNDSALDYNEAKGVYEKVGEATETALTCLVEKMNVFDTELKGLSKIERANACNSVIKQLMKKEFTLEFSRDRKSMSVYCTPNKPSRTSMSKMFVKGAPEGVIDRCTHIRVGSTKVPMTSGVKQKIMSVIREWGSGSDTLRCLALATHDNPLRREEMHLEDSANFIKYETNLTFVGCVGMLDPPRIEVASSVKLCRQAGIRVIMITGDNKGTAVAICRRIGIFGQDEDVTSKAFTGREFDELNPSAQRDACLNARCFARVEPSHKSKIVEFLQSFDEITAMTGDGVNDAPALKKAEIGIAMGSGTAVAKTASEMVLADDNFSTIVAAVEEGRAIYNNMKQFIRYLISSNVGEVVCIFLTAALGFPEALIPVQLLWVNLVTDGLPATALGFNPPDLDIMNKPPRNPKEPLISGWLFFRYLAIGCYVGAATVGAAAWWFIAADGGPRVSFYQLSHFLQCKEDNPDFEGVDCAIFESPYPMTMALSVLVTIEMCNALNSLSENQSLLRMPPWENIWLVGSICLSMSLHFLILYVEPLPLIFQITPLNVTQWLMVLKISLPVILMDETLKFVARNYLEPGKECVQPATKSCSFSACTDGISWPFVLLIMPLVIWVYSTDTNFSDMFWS

| SMILES | Papp at 24 h [1] [×10⁻⁶ cm/s] | effect on RyR2 activity / [Ca2+]ER (in words) [4] | RyR2 activity [4] [%] | activation of SERCA2 in HL-1 [5] [%] | EC50 ([5]; HL-1 cells) | ATPase activity of SERCA2a in mouse SER [6] [%] | pEC50 [6] | stimulatory effect compared to the control ([5]; HL-1 cells, from 1 to 10 μM, bell-shaped dose response, decreased at higher doses) | effect on ATPase activity (in words) [2] | NaV1.5 activity in CHO cells [3] [%] | effect on SERCA2a ATPase activity (in words) [6] | effect on NaV1.5 activity (in words) [3] | viability of HL-1 cells (in words) [7] | P e (permeability rate) [8] |
| --- | --- | --- | --- | --- | --- | --- | --- | --- | --- | --- | --- | --- | --- | --- |
| COc1ccc(OCCCNC(=O)/C=C/c2ccc(O)c(O)c2)cc1 [Compound 1, (E)-3-(3,4-Dihydroxyphenyl)-N-(3-(4-methoxyphenyloxy)propyl)acrylamide] | 1.8 | did not affect the RyR2 activity | 100.8 ± 1.3 | 157.7 ± 7.1 | 15 µM and 14.9 µM | 98.2 ± 6.5 | – | – | significantly increased the ATPase activity | 91.8 ± 1.0 | did not evoke a significant increase in ATPase activity | – | – | – |
| COc1ccc2c(c1)CN(C(=O)C(=O)O)CCS2 [Compound S36, reference compound] | – | increase in R-CEPIA1er fluorescence | 103.4 ± 0.7 | – | – | – | – | – | – | – | – | no effect on NaV1.5 activity | – | 1.0 (low, ref ) 10^–6 cm/s |

Second part, led by results:

| Papp at 24 h [1] [×10⁻⁶ cm/s] | effect on RyR2 activity / [Ca2+]ER (in words) [4] | RyR2 activity [4] [%] | activation of SERCA2 in HL-1 [5] [%] | EC50 ([5]; HL-1 cells) | ATPase activity of SERCA2a in mouse SER [6] [%] | pEC50 [6] | stimulatory effect compared to the control ([5]; HL-1 cells, from 1 to 10 μM, bell-shaped dose response, decreased at higher doses) | SMILES | effect on ATPase activity (in words) [2] | NaV1.5 activity in CHO cells [3] [%] | effect on SERCA2a ATPase activity (in words) [6] | effect on NaV1.5 activity (in words) [3] | viability of HL-1 cells (in words) [7] | P e (permeability rate) [8] |
| --- | --- | --- | --- | --- | --- | --- | --- | --- | --- | --- | --- | --- | --- | --- |
| 0.9 | did not affect the RyR2 activity | 100.5 ± 0.8 | 190.6 ± 6.6 | 9 µM and 9.1 µM | 109.0 ± 4.0 | – | – | COc1ccc2c(c1)CN(CCCCNC(=O)/C=C/c1ccc(O)c(O)c1)CCS2 [Compound 5] | significantly increased the ATPase activity | 97.7 ± 1.9 | did not evoke a significant increase in ATPase activity | – | – | – |
| 0.4 | significantly increased [Ca^2+]ER | 105.7 ± 0.4 | 164.0 ± 3.0 | 10.9 µM | 113.1 ± 2.1 | 7.39 | – | COc1ccc2c(c1)CN(CCCCCCCCNC/C=C/c1ccc(O)c(O)c1)CCS2 [Compound 9] | – | 106.0 ± 1.0 | – | no effect on NaV1.5 | remained unchanged | – |
| 0.1 | significantly increased [Ca^2+]ER | 103.0 ± 0.4 | 299.1 ± 12.8 | 2.5 µM | 115.5 ± 3.7 | 7.64 | up to 300% | COc1ccc2c(c1)CN(CCCCCCCC[NH+]([BH2-]C#N)C/C=C/c1ccc(O)c(O)c1)CCS2 (stereo not drawn) [Compound 13] | – | 83.3 ± 0.9 | – | – | remained unchanged | – |
